These results are taken from paper PMC7764069 (Microorganisms, 2020).

The conditions of data set [1]: BXA in humans; mimicked by 15 mg/kg BXM BID for 5 days orally in immunocompetent mice; cited from earlier work.
For another data set, the system named is A(H1N1)pdm09 virus. Also noted: method as in PMID 31837268. Particulars: nude mice, BXM 10 mg/kg once daily for 28 days; untreated controls 5 days; cited from earlier work.
The test system of data set [2] is splenic T, B and NK cells. To be noted: for frequency of proliferating B cells: day 4 post infection; for frequency of proliferating B cells / percentage of proliferating T cells: CP 100 mg/kg i.p.

The structures appear in SMILES notation. Like-named read-outs stand apart in the source and are kept apart here.

As to `O=C1c2c(O)c(=O)ccn2N([C@@H]2c3ccccc3SCc3c2ccc(F)c3F)[C@@H]2COCCN12` [BXA, baloxavir acid], the target plasma concentration in data set [1] is recorded as 6.85 ng/mL.
In the case of `COC(=O)OCOc1c2n(ccc1=O)N([C@@H]1c3ccccc3SCc3c1ccc(F)c3F)[C@@H]1COCCN1C2=O` [BXM, baloxavir marboxil], the median survival time in the data set with A(H1N1)pdm09 virus is on record as 49 days.
Consider `O=P1(N(CCCl)CCCl)NCCCO1` (stereo not shown) [CP, cyclophosphamide], for which the NK proliferative capacity entry in data set [2] (following CP administration, day 4 p.i.) is listed as “no significant decline”. The “frequency of proliferating B cells” value in data set [2] (infected animals, without CP 94.7%) was 40.7%; in data set [2] (uninfected mice, without CP 82.5%) it was 36.2%. The “percentage of proliferating T cells” value in data set [2] (infected mice, day 4 p.i., without CP […]) was determined as 72.6%; in data set [2] (uninfected mice, day 4 p.i., without CP 92.2%), 63.1%.
